The target in the experiment is T1, Induced myeloid leukemia cell differentiation protein Mcl-1 [172-327] (Homo sapiens, UniProt Q07820).
T1 construct: 172-327
Kind of experiment: Binding Assay.

pKi: −log10 of the molar value.

T1 sequence (Q07820 172-327): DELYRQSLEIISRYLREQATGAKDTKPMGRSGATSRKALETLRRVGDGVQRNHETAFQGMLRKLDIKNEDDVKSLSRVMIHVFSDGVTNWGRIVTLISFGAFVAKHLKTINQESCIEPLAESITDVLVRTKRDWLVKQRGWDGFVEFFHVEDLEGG

`Cc1cc(OCCCc2c(C(=O)NS(=O)(=O)c3ccccc3)[nH]c3c(-c4c(COc5ccccn5)nn(C)c4C)cccc23)cc(C)c1Cl` [US10844032, Example 306]: the pKi (usually −log10 of the Ki, conventionally taken in molar units) is greater than 7.00.

As for `Cc1cc(OCCCc2c(C(=O)NS(=O)(=O)c3ccccc3)[nH]c3c(-c4c(COc5cccnc5)nn(C)c4C)cccc23)cc(C)c1Cl` [US10844032, Example 307], the pKi is greater than 7.00.

The record behind these values is BindingDB's records for patent US10844032 (Vanderbilt University, 2020).
